Key:
PDE5A1 enzyme = molecular target: T1, PDE5A1 enzyme (Homo sapiens, UniProt O76074); assay: In vitro inhibition of human phosphodiesterase enzyme 5 (BPS Bioscience PDE5A1 assay kit, fluorescence polarization); assay type: biochemical
T1 construct: purchased BPS Bioscience 60350
Method: The evaluation of the compound is studied using BPS Bioscience enzyme assay kit (catalogue 60350). The PDE5A1 Assay kit is designed for identification of PDE5A1 inhibitors using fluorescence polarization. The assay is based on the binding of a fluorescent nucleotide monophosphate generated by PDE5A1 enzyme to the binding agent.
In this methodology only two simple steps on a microtiter plate are required for PDE5A1 reactions. First, the fluorescently labeled cGMP is incubated with PDE5A1 for 1 hour. Second, the binding agent is added to the reaction mixture to produce a change in fluorescent polarization that can then be measured using a fluorescence reader equipped for the measurement of fluorescence polarization.
For the assay the storage reagent FAM-Cyclic-3′, 5′-GMP (20 μM) is diluted with PDE assay buffer to achieve the solution with a […] concentration; the PDE5A1 enzyme is thawed and diluted with the PDE buffer obtaining a PDE5A1 solution at 10 pg/mL.
The assay compounds are diluted with DMSO 100% (v/v) at a concentration of 1000 μM and subsequently diluted in a Sodium chloride 0.9% solution to obtain a curve of concentrations of interest for the assay. The compounds are diluted in concentrations of: 10 nM, 30 nM, 50 nM, 100 nM, 300 nM, 500 nM, 1 μM, 3 μM, 5 μM (DMSO 10% v/v).
The study is comprised of groups: (i) substrate control; (ii) positive control (KIT); (iii) samples in several concentrations; (iv) tadalafil (comparative control). Each parameter (group) is triple labeled.
For the 4 groups there is added, to each microplate well, […] of the FAM-Cyclic-3′ reagent, 5′-GMP (200 μM).
To the substrate control group there is added, to each well, […] of vehicle (DMSO 10% v/v) and […] PDE Buffer.
To the positive control group there is added, to each well, […] of vehicle (DMSO 10% v/v).
To the tadalafil group: there is added […] of the solution in the concentrations of interest.
To the test group there is added […] of the sample solution (test compound)
OBSERVATION: the parameters tested are in triplicate.
To begin the reaction, add […] of the PDE5A1 enzyme (diluted as described above) to the microplate wells designated as Positive Control and Samples (test and tadalafil), and incubate the microplate, for 1 hour, at a temperature of 25° C.
After the incubation period, the reaction is interrupted by the addition, in all the wells, of […] of the binding agent solution and the microplate is incubated for 30 minutes, under light stirring, at room temperature. The reading of the microplate is carried out in Polarized Fluorescence (475-495 nm—excitation and 518-538 nm—emission detection) 500 nanoseconds integration time.

[1] = tested on: PC3-human prostate cancer cells; assay: Antiproliferative effect in tumor cell culture (CYQuant intracellular DNA, 72 hours), PC3; assay type: cell-based; details: for % Cell Proliferation Inhibition (intracellular DNA) PC-3 (average ± E.P.M.): 72 hours
Method: (§1) For the execution of the assay, the compounds are diluted in DMSO 100% (v/v) at a concentration of 1000 μM and subsequently diluted in a Sodium Chloride solution 0.9% to obtain the storage solutions of interest for use in the assays. The final concentration of interest will be directly diluted in the cell culture medium. For the assay there are used the following tumor cell lineages: PC3-human prostate cancer cells; LNCAP-human prostate cancer cells; DU145-human prostate cancer; MNK45-human gastric cancer and RT4-human bladder cancer cells. The tumor cell lineages are maintained in culture according to standard procedures established by the Cell Bank of Rio de Janeiro (lineage place of origin). For the assay, the tumor cells are seeded in the concentration of 10.000 cells per well (final volume of the reaction of […]), the plate is incubated for 8 hours, for the cells to adhere to the wall of the wells. After this period, the plate is divided in groups: • (a) test group: […] of the samples were added (test compound) in the concentrations of interest; • (b) positive control group: […] of culture medium were added (100% of cell proliferation); • (c) negative control group: 200 mL of culture medium and […] of the vehicle used were added to dilute the compounds (without cells—zero proliferation); • (d) control group: […] were added of the vehicle used to dilute the compounds. This group is important to evaluate whether the vehicle used interferes in the cell proliferation. OBSERVATION: the treatment with the concentrations of samples (test compounds) and of the controls are carried out in triplicate. Incubate the plate for 72 hours in a CO2 kiln at 37° C. After the incubation period, add […]/well of the solution with DNA marker from the CYQuant Kit and incubate the plate, for 60 minutes, in a CO2 incubator at 37° C. The fluorescence intensity is determined using a fluorescence microplate reader with 485 nm excitation and 530 nm emission detection. The results obtained were normalized relative to the positive control group (100% proliferation). For the compounds there are prepared the storage solutions in the concentrations of: 100 nM, 1 μM, 3 μM, 5 μM, 10 μM and 30 μM (DMSO 10% v/v). While the final concentrations in the test are of: 10 nM, 100 nM, 300 nM, 500 nM, 1000 nM and 3000 nM (in DMSO 1% v/v).

[2] = tested on: LNCAP-human prostate cancer cells; assay: Antiproliferative effect in tumor cell culture (CYQuant intracellular DNA, 72 hours), LNCAP; assay type: cell-based; details: for % Cell Proliferation Inhibition (intracellular DNA) LNCAP (average ± E.P.M.): 72 hours
Method: as §1

[3] = tested on: DU145-human prostate cancer; assay: Antiproliferative effect in tumor cell culture (CYQuant intracellular DNA, 72 hours), DU145; assay type: cell-based; details: for % Cell Proliferation Inhibition (intracellular DNA) DU145 (average ± E.P.M.): 72 hours
Method: as §1

[4] = tested on: MNK45-human gastric cancer; assay: Antiproliferative effect in tumor cell culture (CYQuant intracellular DNA, 72 hours), MNK45; assay type: cell-based
Method: as §1

[5] = tested on: RT4-human bladder cancer cells; assay: Antiproliferative effect in tumor cell culture (CYQuant intracellular DNA, 72 hours), RT4; assay type: cell-based; details: for % Cell Proliferation Inhibition (intracellular DNA) RT4 (average ± E.P.M.): 72 hours
Method: as §1

## CC(CO)N1CC(=O)N2C(=C(c3c[nH]c4ccccc34)OC2c2ccc3c(c2)OCO3)C1=O (mixture of isomers) [BL-241, (R)-3-(benzo[d][1,3]dioxol-5-yl)-7-((S)-1-hydroxypropan-2-yl)-1-(1H-indole-3-yl)-6,7-dihydro-3H-oxazole[3,4-a]pyrazine-5,8-dione with (S)-3-(benzo[d][1,3]dioxol-5-yl)-7-((S)-1-hydroxypropan-2-yl)-1-(1H-indole-3-yl)-6,7-dihydro-3H -oxazole[3,4-a]pyrazine-5,8-dione]
PDE5A1 enzyme; 500 nM, 0.5 µM
  % of Inhibition (PDE5A1): 57%
PDE5A1 enzyme; 1000 nM, 1 µM
  % of Inhibition (PDE5A1): 71%
PDE5A1 enzyme; 3000 nM, 3 µM
  % of Inhibition (PDE5A1): 88%
PDE5A1 enzyme; over the concentrations tested
  PDE5 inhibition, result in words: capable of inhibiting the PDE5 in a dose-dependent manner
[1]; 10 nM, 0.01 µM
  % Cell Proliferation Inhibition (intracellular DNA) PC-3 (average ± E.P.M.): 27 ± 11%
[1]; 100 nM, 0.1 µM
  % Cell Proliferation Inhibition (intracellular DNA) PC-3 (average ± E.P.M.): 36 ± 7%
[1]; 300 nM, 0.3 µM
  % Cell Proliferation Inhibition (intracellular DNA) PC-3 (average ± E.P.M.): 42 ± 6%
[1]; 500 nM, 0.5 µM
  % Cell Proliferation Inhibition (intracellular DNA) PC-3 (average ± E.P.M.): 46 ± 1%
[1]; 1000 nM, 1 µM
  % Cell Proliferation Inhibition (intracellular DNA) PC-3 (average ± E.P.M.): 33 ± 3%
[1]; PC3 prostate cancer tumor lineage
  antiproliferative effect, result in words: antiproliferative effect
[2]; 10 nM, 0.01 µM
  % Cell Proliferation Inhibition (intracellular DNA) LNCAP (average ± E.P.M.): 25 ± 2%
[2]; 100 nM, 0.1 µM
  % Cell Proliferation Inhibition (intracellular DNA) LNCAP (average ± E.P.M.): 37 ± 3%
[2]; 300 nM, 0.3 µM
  % Cell Proliferation Inhibition (intracellular DNA) LNCAP (average ± E.P.M.): 38 ± 4%
[2]; 500 nM, 0.5 µM
  % Cell Proliferation Inhibition (intracellular DNA) LNCAP (average ± E.P.M.): 44 ± 2%
[2]; 1000 nM, 1 µM
  % Cell Proliferation Inhibition (intracellular DNA) LNCAP (average ± E.P.M.): 34 ± 6%
[2]; LNCAP prostate cancer tumor lineage
  antiproliferative effect, result in words: antiproliferative effect
[3]; 100 nM, 0.1 µM
  % Cell Proliferation Inhibition (intracellular DNA) DU145 (average ± E.P.M.): 33 ± 8%
[3]; 300 nM, 0.3 µM
  % Cell Proliferation Inhibition (intracellular DNA) DU145 (average ± E.P.M.): 17 ± 3%
[3]; 500 nM, 0.5 µM
  % Cell Proliferation Inhibition (intracellular DNA) DU145 (average ± E.P.M.): 18 ± 2%
[3]; 1000 nM, 1 µM
  % Cell Proliferation Inhibition (intracellular DNA) DU145 (average ± E.P.M.): 22 ± 2%
[3]; 3000 nM, 3 µM
  % Cell Proliferation Inhibition (intracellular DNA) DU145 (average ± E.P.M.): 43 ± 5%
[3]; DU145 prostate cancer tumor lineage
  antiproliferative effect, result in words: antiproliferative effect
[4]; 100 nM, 0.1 µM
  % Cell Proliferation Inhibition (intracellular DNA) MNK45 (average ± E.P.M.): 25 ± 1%
[4]; 300 nM, 0.3 µM
  % Cell Proliferation Inhibition (intracellular DNA) MNK45 (average ± E.P.M.): 10 ± 2%
[4]; 500 nM, 0.5 µM
  % Cell Proliferation Inhibition (intracellular DNA) MNK45 (average ± E.P.M.): 2 ± 1%
[4]; 1000 nM, 1 µM
  % Cell Proliferation Inhibition (intracellular DNA) MNK45 (average ± E.P.M.): 4 ± 1%
[4]; 3000 nM, 3 µM
  % Cell Proliferation Inhibition (intracellular DNA) MNK45 (average ± E.P.M.): 20 ± 3%
[5]; 100 nM, 0.1 µM
  % Cell Proliferation Inhibition (intracellular DNA) RT4 (average ± E.P.M.): 28 ± 6%
[5]; 300 nM, 0.3 µM
  % Cell Proliferation Inhibition (intracellular DNA) RT4 (average ± E.P.M.): 5 ± 2%
[5]; 500 nM, 0.5 µM
  % Cell Proliferation Inhibition (intracellular DNA) RT4 (average ± E.P.M.): 4 ± 2%
[5]; 1000 nM, 1 µM
  % Cell Proliferation Inhibition (intracellular DNA) RT4 (average ± E.P.M.): 11 ± 8%
[5]; 3000 nM, 3 µM
  % Cell Proliferation Inhibition (intracellular DNA) RT4 (average ± E.P.M.): 57 ± 4%
[5]; RT4 bladder cancer tumor lineage
  antiproliferative effect, result in words: antiproliferative effect
